Results from ChEMBL document CHEMBL5727303, “Substituted perhydropyrrolo[3,4-c]pyrrole derivatives and the use of same” (2019).

Columns and labels:
[1] = molecular target: Potassium channel subfamily K member 9 (Homo sapiens, UniProt Q9NPC2); assay: (§1) In Vitro Electrophysiological Assay: In Vitro Electrophysiological Analysis of the Human TASK-1 and TASK-3 Channels Via Two-Electrode Voltage Clamp Technique in Xenopus laevis OocytesSubsequently, the oocytes were injected with 0.5-5 ng of a cRNA solution coding for TASK-1 or TASK-3. For the electrophysiological analysis of the channel proteins expressed in the oocytes, the two-electrode voltage clamp technique was used. The measurements were conducted at room temperature (21-22° C.) using a Turbo TEC 10CD amplifier (NPI), recorded at 2 kHz and filtered with 0.4 kHz. Substance administration was performed using a gravitation-driven perfusion system. Here, the oocyte is located in a measuring chamber and exposed to the solution stream of 10 ml/min. The level in the measuring chamber is monitored and regulated by sucking off the solution using a peristaltic pump.; format: cell-based
[2] = molecular target: Potassium channel subfamily K member 3 (Homo sapiens, UniProt O14649); assay: as §1; format: cell-based
Sequence of Potassium channel subfamily K member 3 (O14649 whole entry): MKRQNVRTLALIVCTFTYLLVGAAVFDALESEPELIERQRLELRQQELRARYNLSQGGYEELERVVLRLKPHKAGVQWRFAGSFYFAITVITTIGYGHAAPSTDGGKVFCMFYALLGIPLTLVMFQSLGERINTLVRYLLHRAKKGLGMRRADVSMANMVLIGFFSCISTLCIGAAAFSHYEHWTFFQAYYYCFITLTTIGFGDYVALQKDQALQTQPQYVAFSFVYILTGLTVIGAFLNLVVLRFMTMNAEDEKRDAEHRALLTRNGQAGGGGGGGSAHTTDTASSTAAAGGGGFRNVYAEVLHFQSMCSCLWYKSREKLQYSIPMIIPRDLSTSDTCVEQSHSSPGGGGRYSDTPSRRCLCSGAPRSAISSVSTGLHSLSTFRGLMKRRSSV

Sequence of Potassium channel subfamily K member 9 (Q9NPC2 whole entry, the tested form may be a part): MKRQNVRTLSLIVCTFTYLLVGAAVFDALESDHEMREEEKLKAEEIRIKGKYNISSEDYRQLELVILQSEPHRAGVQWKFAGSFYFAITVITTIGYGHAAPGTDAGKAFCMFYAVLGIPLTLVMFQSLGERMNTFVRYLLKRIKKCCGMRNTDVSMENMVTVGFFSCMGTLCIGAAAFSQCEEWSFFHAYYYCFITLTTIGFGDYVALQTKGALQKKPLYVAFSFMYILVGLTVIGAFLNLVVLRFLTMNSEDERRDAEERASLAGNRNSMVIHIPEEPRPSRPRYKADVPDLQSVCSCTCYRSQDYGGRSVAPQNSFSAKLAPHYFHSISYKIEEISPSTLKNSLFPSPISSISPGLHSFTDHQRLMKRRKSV

IC50 [1]: 3700 nM | IC50 [2]: 740 nM
SMILES: CCOc1ccccc1NC(=O)N1CC2CN(Cc3c(-c4ccc(Br)cc4)nc4ccccn34)CC2C1 (configuration not stated)
